Source: the supplement of paper PMC12463676, “Small-molecule dissolution of stress granules by redox modulation benefits ALS models” (Nature Chemical Biology, 2025)

Compound: NC(=O)CCCCC1CCSS1 [lipoamide]
Experiment: thermal stability z-score vs DMSO; higher = more thermally stabilized by treatment
Details: HeLa; lipoamide concentration 100 µM; arsenate co-treatment: none
Experimental: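 Cellular thermal proteome profiling in HeLa cells. Cells were treated with 100 µM lipoamide for 1 h, with or without 1 mM arsenate for a further 1 h, then heated to ten temperatures (37-66.3 °C), and soluble protein was quantified by TMT mass spectrometry relative to 0.1% DMSO controls. The thermal stability score (sum of log2 fold changes minus the abundance score) was transformed to a z-score; mean of n = 3 experiments.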
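Further: each temperature applied for 3 min, abundance score taken as mean log2 fold change at the two lowest temperatures, z-score obtained by mean subtraction and division by SD.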

Chain of UniProt P53680 (P53680 whole entry): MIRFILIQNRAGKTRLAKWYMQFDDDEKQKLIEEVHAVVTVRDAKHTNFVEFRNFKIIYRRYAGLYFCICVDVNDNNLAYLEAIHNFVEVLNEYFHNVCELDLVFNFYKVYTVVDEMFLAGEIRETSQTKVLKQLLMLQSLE
Chain of UniProt Q9NVR5 (Q9NVR5 whole entry): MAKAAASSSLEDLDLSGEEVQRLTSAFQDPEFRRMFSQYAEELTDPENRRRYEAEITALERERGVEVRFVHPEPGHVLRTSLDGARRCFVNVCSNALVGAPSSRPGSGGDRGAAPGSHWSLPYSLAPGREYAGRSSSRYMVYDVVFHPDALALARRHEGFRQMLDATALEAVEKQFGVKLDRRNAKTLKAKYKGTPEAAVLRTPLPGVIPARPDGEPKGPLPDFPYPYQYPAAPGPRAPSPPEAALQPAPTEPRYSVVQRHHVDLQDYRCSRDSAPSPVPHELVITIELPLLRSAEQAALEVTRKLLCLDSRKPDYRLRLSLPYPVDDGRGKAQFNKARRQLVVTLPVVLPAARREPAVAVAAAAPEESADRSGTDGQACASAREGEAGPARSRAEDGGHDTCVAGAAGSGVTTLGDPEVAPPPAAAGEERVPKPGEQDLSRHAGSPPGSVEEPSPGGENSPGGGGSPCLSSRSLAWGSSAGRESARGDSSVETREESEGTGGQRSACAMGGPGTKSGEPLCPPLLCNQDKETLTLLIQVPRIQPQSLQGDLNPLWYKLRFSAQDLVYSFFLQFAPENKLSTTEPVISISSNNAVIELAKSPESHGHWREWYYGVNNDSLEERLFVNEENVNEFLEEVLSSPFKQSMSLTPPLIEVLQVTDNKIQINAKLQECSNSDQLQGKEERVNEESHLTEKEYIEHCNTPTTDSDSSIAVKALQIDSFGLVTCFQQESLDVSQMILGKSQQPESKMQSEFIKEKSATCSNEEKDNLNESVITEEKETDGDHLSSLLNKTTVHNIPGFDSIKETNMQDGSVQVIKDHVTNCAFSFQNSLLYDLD
Chain of UniProt O14974 (O14974 whole entry): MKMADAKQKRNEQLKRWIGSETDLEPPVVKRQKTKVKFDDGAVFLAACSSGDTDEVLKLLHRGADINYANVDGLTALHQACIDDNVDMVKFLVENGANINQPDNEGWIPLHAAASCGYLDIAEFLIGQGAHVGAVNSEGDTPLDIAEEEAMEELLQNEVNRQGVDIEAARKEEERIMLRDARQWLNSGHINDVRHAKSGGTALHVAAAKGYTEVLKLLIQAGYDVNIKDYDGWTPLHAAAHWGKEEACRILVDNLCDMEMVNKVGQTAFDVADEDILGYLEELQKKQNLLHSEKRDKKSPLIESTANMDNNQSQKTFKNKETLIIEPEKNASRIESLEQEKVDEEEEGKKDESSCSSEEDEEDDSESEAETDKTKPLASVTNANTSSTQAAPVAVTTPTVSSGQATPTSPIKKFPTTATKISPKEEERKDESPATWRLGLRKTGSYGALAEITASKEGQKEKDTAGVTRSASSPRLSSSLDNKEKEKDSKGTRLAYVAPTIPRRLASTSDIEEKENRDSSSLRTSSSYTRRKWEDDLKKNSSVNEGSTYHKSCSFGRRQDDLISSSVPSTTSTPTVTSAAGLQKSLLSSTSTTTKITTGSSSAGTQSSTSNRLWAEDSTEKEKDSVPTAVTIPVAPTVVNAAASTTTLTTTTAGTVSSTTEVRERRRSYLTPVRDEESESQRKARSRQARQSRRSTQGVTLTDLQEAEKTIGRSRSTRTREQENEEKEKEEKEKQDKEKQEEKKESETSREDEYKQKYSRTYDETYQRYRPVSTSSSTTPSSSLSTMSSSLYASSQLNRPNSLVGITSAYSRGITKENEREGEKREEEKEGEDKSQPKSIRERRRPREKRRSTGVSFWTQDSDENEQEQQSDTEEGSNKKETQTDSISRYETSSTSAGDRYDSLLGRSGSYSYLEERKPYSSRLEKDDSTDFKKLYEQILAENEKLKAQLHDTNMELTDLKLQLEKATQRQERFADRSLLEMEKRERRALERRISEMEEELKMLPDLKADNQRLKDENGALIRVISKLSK
Chain of UniProt Q9Y6H1 (Q9Y6H1 whole entry): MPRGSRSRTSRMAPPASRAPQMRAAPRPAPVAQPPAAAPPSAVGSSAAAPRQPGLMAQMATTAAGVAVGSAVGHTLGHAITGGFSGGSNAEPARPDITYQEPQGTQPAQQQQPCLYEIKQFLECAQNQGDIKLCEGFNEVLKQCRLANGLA
Chain of UniProt P05161 (P05161 whole entry): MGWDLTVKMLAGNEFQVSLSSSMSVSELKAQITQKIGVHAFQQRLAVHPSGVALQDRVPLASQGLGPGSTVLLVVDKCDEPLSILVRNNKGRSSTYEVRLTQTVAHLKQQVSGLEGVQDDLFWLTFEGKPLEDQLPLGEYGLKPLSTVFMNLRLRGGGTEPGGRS
Chain of UniProt P63167 (P63167 whole entry): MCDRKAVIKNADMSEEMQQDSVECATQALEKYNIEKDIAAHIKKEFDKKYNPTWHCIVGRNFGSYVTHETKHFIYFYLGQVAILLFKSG

First: CWF19L1 (UniProt Q69YN2)
Second: COPS8 (UniProt Q99627)
The thermal stability z-score of the first is lower: -0.106 for the first, -0.053 for the second.

Compared with SELO (UniProt Q9BVL4), DNAAF2 (UniProt Q9NVR5) is higher in thermal stability z-score: -0.211 for the first, -0.168 for the second.

First: NDUFA2 (UniProt O43678)
Chain of UniProt O43678 (O43678 whole entry): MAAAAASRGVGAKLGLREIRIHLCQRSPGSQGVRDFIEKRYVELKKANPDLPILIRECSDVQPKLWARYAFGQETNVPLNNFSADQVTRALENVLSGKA
Second: VPS28 (UniProt Q9UK41)
The thermal stability z-score of the first is lower: -0.00199 for the first, 0.681 for the second.

Going from CDC40 (UniProt O60508) to UQCRB (UniProt P14927), the thermal stability z-score rises from 0.182 to 0.847.

First: TRIM29 (UniProt Q14134)
Second: STX18 (UniProt Q9P2W9)
Chain of UniProt Q9P2W9 (Q9P2W9 whole entry): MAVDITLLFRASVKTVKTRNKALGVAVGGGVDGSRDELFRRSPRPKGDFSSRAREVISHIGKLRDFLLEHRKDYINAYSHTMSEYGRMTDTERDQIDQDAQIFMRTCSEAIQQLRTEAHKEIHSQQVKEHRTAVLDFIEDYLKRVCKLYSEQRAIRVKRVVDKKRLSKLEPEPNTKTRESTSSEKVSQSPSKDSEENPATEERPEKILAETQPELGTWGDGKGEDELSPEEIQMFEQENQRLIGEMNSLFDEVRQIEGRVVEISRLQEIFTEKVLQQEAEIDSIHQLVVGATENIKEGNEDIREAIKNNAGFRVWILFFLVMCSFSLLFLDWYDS
The thermal stability z-score of the first is higher: 0.185 for the first, 0.0404 for the second.

First: DHFR (UniProt P00374)
Second: PGLS (UniProt O95336)
The thermal stability z-score of the first is higher: -0.563 for the first, -0.683 for the second.

First: MCTP2 (UniProt Q6DN12)
Chain of UniProt Q6DN12 (Q6DN12 whole entry): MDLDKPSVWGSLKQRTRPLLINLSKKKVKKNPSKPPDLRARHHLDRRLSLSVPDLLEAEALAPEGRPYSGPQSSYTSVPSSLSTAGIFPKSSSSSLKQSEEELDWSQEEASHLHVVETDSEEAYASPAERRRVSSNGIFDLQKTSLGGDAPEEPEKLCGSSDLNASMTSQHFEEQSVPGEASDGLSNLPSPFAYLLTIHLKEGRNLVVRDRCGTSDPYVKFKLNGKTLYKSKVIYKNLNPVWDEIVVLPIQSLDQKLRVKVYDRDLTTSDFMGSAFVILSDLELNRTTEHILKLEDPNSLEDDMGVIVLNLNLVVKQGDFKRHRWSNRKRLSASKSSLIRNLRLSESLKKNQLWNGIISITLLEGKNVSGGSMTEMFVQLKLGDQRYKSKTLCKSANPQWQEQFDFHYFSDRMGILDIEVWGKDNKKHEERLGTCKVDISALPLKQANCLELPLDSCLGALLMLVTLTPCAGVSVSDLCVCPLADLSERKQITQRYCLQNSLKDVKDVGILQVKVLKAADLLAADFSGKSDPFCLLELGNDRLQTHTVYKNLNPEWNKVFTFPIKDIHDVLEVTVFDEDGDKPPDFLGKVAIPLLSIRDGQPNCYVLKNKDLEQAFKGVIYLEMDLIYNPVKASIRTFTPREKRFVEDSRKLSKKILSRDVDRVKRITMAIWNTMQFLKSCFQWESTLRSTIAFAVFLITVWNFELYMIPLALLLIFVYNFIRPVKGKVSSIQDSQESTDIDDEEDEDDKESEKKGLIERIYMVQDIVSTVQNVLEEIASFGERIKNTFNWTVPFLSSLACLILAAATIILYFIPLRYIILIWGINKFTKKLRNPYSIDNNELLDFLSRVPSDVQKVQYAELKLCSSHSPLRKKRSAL
Second: CDKN2A
The thermal stability z-score of the first is lower: -0.145 for the first, 1.64 for the second.

Going from CEP290 (UniProt O15078) to AP2S1 (UniProt P53680), the thermal stability z-score falls from 0.238 to -0.0691.

Compared with ISG15 (UniProt P05161), FOXK2 (UniProt Q01167) is lower in thermal stability z-score: 0.327 for the first, -0.306 for the second.

Compared with TRAF3IP2 (UniProt O43734), SLC39A7 (UniProt Q92504) is lower in thermal stability z-score: -0.159 for the first, -0.943 for the second.

Compared with CRLF3 (UniProt Q8IUI8), CHCHD2 (UniProt Q9Y6H1) is higher in thermal stability z-score: -0.971 for the first, 1.34 for the second.

Going from CDK8 (UniProt P49336) to CHERP (UniProt Q8IWX8), the thermal stability z-score rises from -0.822 to 0.0908.

Compared with TMEM214 (UniProt Q6NUQ4), PPP1R12A (UniProt O14974) is higher in thermal stability z-score: -0.131 for the first, 0.52 for the second.

First: RPS11 (UniProt P62280)
Second: RNF121 (UniProt Q9H920)
Chain of UniProt Q9H920 (Q9H920 whole entry): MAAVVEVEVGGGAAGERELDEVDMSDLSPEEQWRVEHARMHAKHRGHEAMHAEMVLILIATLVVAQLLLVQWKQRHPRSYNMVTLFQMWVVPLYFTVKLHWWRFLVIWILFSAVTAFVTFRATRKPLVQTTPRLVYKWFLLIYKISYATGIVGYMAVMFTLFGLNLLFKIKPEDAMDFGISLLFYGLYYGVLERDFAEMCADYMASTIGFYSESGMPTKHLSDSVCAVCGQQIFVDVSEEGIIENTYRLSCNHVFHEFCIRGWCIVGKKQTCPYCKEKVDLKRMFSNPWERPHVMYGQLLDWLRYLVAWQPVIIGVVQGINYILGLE
The thermal stability z-score of the first is higher: 0.352 for the first, -0.693 for the second.

First: MRPL55 (UniProt Q7Z7F7)
Second: AES (UniProt Q08117)
The thermal stability z-score of the first is lower: 0.0521 for the first, 0.111 for the second.

Compared with SAFB (UniProt Q15424), IFI30 (UniProt P13284) is lower in thermal stability z-score: 0.651 for the first, 0.524 for the second.

Compared with FUNDC2 (UniProt Q9BWH2), TSPAN4 (UniProt O14817) is higher in thermal stability z-score: -0.555 for the first, 0.15 for the second.

Going from CPPED1 (UniProt Q9BRF8) to AGAP1 (UniProt Q9UPQ3), the thermal stability z-score falls from 0.348 to -2.08.

Compound: O=[As]([O-])(O)O.[K+] [potassium arsenate]
Experiment: as above
Details: HeLa; arsenate concentration 1 mM
Experimental: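 Cellular thermal proteome profiling in HeLa cells treated with 1 mM arsenate for 1 h (DMSO pretreatment), heated to ten temperatures (37-66.3 °C). Soluble protein was quantified by TMT mass spectrometry relative to DMSO controls; the thermal stability score was transformed to a z-score; mean of n = 3 experiments.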

Compared with HAX1 (UniProt O00165), CYP2S1 (UniProt Q96SQ9) is lower in thermal stability z-score: -0.11 for the first, -0.647 for the second.

Compared with MCMBP (UniProt Q9BTE3), EML2 (UniProt O95834) is lower in thermal stability z-score: 0.409 for the first, -0.718 for the second.

Compared with SRM (UniProt P19623), SMARCD2 (UniProt Q92925) is higher in thermal stability z-score: -0.141 for the first, -0.0687 for the second.

Going from ACOT9 (UniProt Q9Y305) to LPCAT4 (UniProt Q643R3), the thermal stability z-score rises from -0.344 to 0.519.

First: FXR1 (UniProt P51114)
Second: GINS3 (UniProt Q9BRX5)
The thermal stability z-score of the first is higher: 0.794 for the first, -0.288 for the second.

Compared with ARAF (UniProt P10398), DPF2 (UniProt Q92785) is lower in thermal stability z-score: -0.275 for the first, -5.05 for the second.

Compared with CCT6A (UniProt P40227), FANCI (UniProt Q9NVI1) is lower in thermal stability z-score: -0.174 for the first, -1.2 for the second.

Compared with GAMT (UniProt Q14353), AAGAB (UniProt Q6PD74) is higher in thermal stability z-score: -0.0271 for the first, 2.05 for the second.

Compared with KAT8 (UniProt Q9H7Z6), CTSC (UniProt P53634) is higher in thermal stability z-score: -0.509 for the first, -0.148 for the second.

Going from TKT (UniProt P29401) to EXT2 (UniProt Q93063), the thermal stability z-score falls from -0.045 to -0.573.

First: SFXN4 (UniProt Q6P4A7)
Second: PYM1 (UniProt Q9BRP8)
The thermal stability z-score of the first is higher: 0.207 for the first, -0.578 for the second.

Compared with HYI (UniProt Q5T013), ACBD6 (UniProt Q9BR61) is lower in thermal stability z-score: 0.524 for the first, -0.675 for the second.

Going from ZC3H8 (UniProt Q8N5P1) to ASNS (UniProt P08243), the thermal stability z-score rises from -0.576 to -0.303.

Going from ABCB10 (UniProt Q9NRK6) to NUCB1 (UniProt Q02818), the thermal stability z-score falls from -0.034 to -0.222.

Compared with MRPS31 (UniProt Q92665), ZDHHC5 (UniProt Q9C0B5) is lower in thermal stability z-score: -0.0848 for the first, -0.438 for the second.

First: PCNT (UniProt O95613)
Second: AIP (UniProt O00170)
The thermal stability z-score of the first is higher: 0.281 for the first, -2.08 for the second.

First: RBM19 (UniProt Q9Y4C8)
Second: MAPK7 (UniProt Q13164)
The thermal stability z-score of the first is higher: 0.649 for the first, 0.334 for the second.

Going from DYNLL1 (UniProt P63167) to FDFT1 (UniProt P37268), the thermal stability z-score falls from 0.163 to 0.108.

First: CWF19L1 (UniProt Q69YN2)
Second: COPS8 (UniProt Q99627)
The thermal stability z-score of the first is lower: -0.198 for the first, 0.171 for the second.

Compared with SELO (UniProt Q9BVL4), DNAAF2 (UniProt Q9NVR5) is higher in thermal stability z-score: -0.536 for the first, -0.268 for the second.

Compared with NDUFA2 (UniProt O43678), VPS28 (UniProt Q9UK41) is higher in thermal stability z-score: 0.396 for the first, 0.492 for the second.

Compared with CDC40 (UniProt O60508), UQCRB (UniProt P14927) is higher in thermal stability z-score: 0.0978 for the first, 0.208 for the second.

First: TRIM29 (UniProt Q14134)
Second: STX18 (UniProt Q9P2W9)
The thermal stability z-score of the first is lower: -0.177 for the first, 0.066 for the second.

Going from DHFR (UniProt P00374) to PGLS (UniProt O95336), the thermal stability z-score falls from 0.324 to -1.3.

Compared with MCTP2 (UniProt Q6DN12), CDKN2A is higher in thermal stability z-score: -0.604 for the first, 0.466 for the second.

Compared with CEP290 (UniProt O15078), AP2S1 (UniProt P53680) is higher in thermal stability z-score: 0.0798 for the first, 0.767 for the second.

Compared with ISG15 (UniProt P05161), FOXK2 (UniProt Q01167) is lower in thermal stability z-score: 0.355 for the first, 0.133 for the second.

First: TRAF3IP2 (UniProt O43734)
Second: SLC39A7 (UniProt Q92504)
The thermal stability z-score of the first is lower: -0.155 for the first, -0.00591 for the second.

Compared with CRLF3 (UniProt Q8IUI8), CHCHD2 (UniProt Q9Y6H1) is higher in thermal stability z-score: 0.0579 for the first, 0.592 for the second.

First: CDK8 (UniProt P49336)
Second: CHERP (UniProt Q8IWX8)
Chain of UniProt Q8IWX8 (Q8IWX8 whole entry): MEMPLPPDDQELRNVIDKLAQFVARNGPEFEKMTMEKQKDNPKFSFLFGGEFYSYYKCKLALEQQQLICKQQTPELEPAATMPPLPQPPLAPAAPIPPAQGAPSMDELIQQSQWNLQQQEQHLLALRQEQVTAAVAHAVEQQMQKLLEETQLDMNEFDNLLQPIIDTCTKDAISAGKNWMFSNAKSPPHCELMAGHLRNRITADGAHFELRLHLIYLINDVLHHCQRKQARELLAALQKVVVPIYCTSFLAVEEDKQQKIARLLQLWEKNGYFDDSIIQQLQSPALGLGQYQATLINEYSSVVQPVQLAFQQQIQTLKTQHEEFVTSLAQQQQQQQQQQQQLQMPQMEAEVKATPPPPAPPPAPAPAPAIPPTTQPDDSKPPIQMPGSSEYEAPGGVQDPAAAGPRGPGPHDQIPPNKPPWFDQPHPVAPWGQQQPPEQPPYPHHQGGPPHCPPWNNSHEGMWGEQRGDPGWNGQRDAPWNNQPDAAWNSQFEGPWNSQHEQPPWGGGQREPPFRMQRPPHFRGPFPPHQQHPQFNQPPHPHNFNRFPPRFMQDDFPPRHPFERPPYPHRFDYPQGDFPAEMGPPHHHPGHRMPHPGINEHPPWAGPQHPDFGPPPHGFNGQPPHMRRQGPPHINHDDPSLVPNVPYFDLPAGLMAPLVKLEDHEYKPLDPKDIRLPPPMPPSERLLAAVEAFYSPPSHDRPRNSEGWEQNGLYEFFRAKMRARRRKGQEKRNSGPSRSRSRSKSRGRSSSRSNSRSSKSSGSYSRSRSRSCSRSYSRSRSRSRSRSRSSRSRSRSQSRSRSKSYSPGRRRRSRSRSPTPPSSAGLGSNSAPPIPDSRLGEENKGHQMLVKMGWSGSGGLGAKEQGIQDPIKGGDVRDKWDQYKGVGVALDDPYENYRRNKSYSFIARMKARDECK
The thermal stability z-score of the first is lower: -1.66 for the first, -0.107 for the second.

Compared with TMEM214 (UniProt Q6NUQ4), PPP1R12A (UniProt O14974) is higher in thermal stability z-score: -0.768 for the first, 0.979 for the second.

Compared with RPS11 (UniProt P62280), RNF121 (UniProt Q9H920) is higher in thermal stability z-score: -1.11 for the first, -1.09 for the second.

First: MRPL55 (UniProt Q7Z7F7)
Second: AES (UniProt Q08117)
The thermal stability z-score of the first is lower: -0.38 for the first, 0.378 for the second.

First: SAFB (UniProt Q15424)
Second: IFI30 (UniProt P13284)
The thermal stability z-score of the first is higher: 0.0324 for the first, -0.049 for the second.

Compared with FUNDC2 (UniProt Q9BWH2), TSPAN4 (UniProt O14817) is higher in thermal stability z-score: -0.587 for the first, 0.304 for the second.

Compared with CPPED1 (UniProt Q9BRF8), AGAP1 (UniProt Q9UPQ3) is lower in thermal stability z-score: 0.792 for the first, -1.91 for the second.
